Data: patent publication US20230365514A1, “MACROCYCLIC COMPOUNDS” (NOVO NORDISK RESEARCH CENTRE OXFORD LIMITED, priority 2017, published 2023)

Legend:
Assay type in all cases: binding
[1] = ITC titration with D-maltose; conditions: 10 mM phosphate buffer pH 7.4, 298 K
Method: (§1) Isothermal Titration (Micro)Calorimetry (ITC) experiments were performed on a MicroCal iTC200 microcalorimeter and/or a MicroCali VP-ITC. ITC experiments were carried out at 298 K. Saccharide solutions were prepared in HPLC-grade water and allowed to equilibrate overnight if necessary. The sample cell was charged with a known concentration of receptor solution in HPLC-grade water (typically 50 µM - 200 µM). Then, aliquots (typically 1.0 µL) of carbohydrate solution were added and the evolution of heat was followed as a function of time. Heats of dilution were measured by injecting the same carbohydrate solution into HPLC-grade water, using identical conditions. For every addition, the heat of dilution was subtracted from the heat of binding using a MicroCal software programme implemented in ORIGIN 7.0. This gave an XY matrix of heat vs. total guest concentration. […] This method of analysis was used in conjunction with fits for Ka calculated using the MicroCal software to corroborate the results obtained.
(§2) Isothermal Titration MicroCalorimetry (ITC) experiments were performed on a MicroCal iTC200 microcalorimeter and/or a MicroCali VP-ITC. […] Heats of dilution were measured by injecting the same carbohydrate solution into HPLC-grade water with 10 mM phosphate buffer solution at pH 7.4, using identical conditions. […]

[2] = ITC titration with L-fucose; conditions: 10 mM phosphate buffer pH 7.4, 298 K
Method: as §1, §2

[3] = 1H NMR titration with myo-inositol; conditions: D2O, 10 mM phosphate buffer pH 7.4, 298 K
Method: (§3) ^1H-NMR titrations were performed on a Varian VNMR cryogenically cooled S600 spectrometer. Solutions of saccharides in D2O (99.9%), containing receptor at a known concentration to be used in the experiment, were prepared and allowed to equilibrate overnight before use if necessary. Aliquots were then added to an NMR tube containing a known concentration of receptor solution (typically 100 µM - 400 µM). The receptor concentration was therefore held constant while the carbohydrate concentration was increased. The sample tube was shaken after each addition and ^1H-NMR spectra were acquired at 298 K.
(§4) ^1H-NMR titrations were performed on a Varian VNMR cryogenically cooled S600 spectrometer. Solutions of saccharides in D2O (99.9%), containing receptor at a known concentration to be used in the experiment, were prepared and allowed to equilibrate overnight before use if necessary. Aliquots were then added to an NMR tube containing a known concentration of receptor solution (typically 50 µM - 250 µM). The receptor concentration was therefore held constant while the carbohydrate concentration was increased. […]
(§5) If the receptor bound saccharide slower than the NMR sample rate (“slow exchange”), the Ka was determined by analysing the NMR integral of a peak assigned to the Host-Guest complex. […] An estimated error for Ka was obtained from individual data points by assuming the determined Ka and Xlim.

[4] = ITC titration with adenosine; conditions: 10 mM phosphate buffer pH 7.4, 298 K
Method: as §1, §2

[5] = ITC titration with D-glucuronic acid; conditions: 10 mM phosphate buffer pH 7.4, 298 K
Method: (§6) Isothermal Titration (Micro)Calorimetry (ITC) experiments were performed on a MicroCal iTC200 microcalorimeter and/or a MicroCali VP-ITC. ITC experiments were carried out at 298 K. Saccharide solutions were prepared in HPLC-grade water and allowed to equilibrate overnight if necessary. The sample cell was charged with a known concentration of receptor solution in HPLC-grade water (typically 50 µM - 200 µM). Then, aliquots (typically 1.0 µL) of carbohydrate solution were added and the evolution of heat was followed as a function of time. Heats of dilution were measured by injecting the same carbohydrate solution into HPLC-grade water, using identical conditions. For every addition, the heat of dilution was subtracted from the heat of binding using a MicroCal software programme implemented in ORIGIN 7.0. This gave an XY matrix of heat vs. total guest concentration. This matrix was then imported into a specially written Excel programme to fit the data to a 1:1 binding model to give a Ka. ΔG can be derived from Ka, and ΔS can be derived from ΔH and ΔG using common thermodynamic equations. This method of analysis was used in conjunction with fits for Ka calculated using the MicroCal software to corroborate the results obtained.
(§7) Isothermal Titration MicroCalorimetry (ITC) experiments were performed on a MicroCal iTC200 microcalorimeter and/or a MicroCali VP-ITC. ITC experiments were carried out at 298 K. Saccharide solutions were prepared in HPLC-grade water with 10 mM phosphate buffer solution (pH 7.4) and allowed to equilibrate overnight if necessary. The sample cell was charged with a known concentration of receptor solution in HPLC-grade water with 10 mM phosphate buffer solution at pH 7.4 (typically 50 µM - 200 µM). Then, aliquots (typically 1.0 µL) of carbohydrate solution were added and the evolution of heat was followed as a function of time. Heats of dilution were measured by injecting the same carbohydrate solution into HPLC-grade water with 10 mM phosphate buffer solution at pH 7.4, using identical conditions. […]

[6] = ITC titration with cytosine; conditions: 10 mM phosphate buffer pH 7.4, 298 K
Method: as §1, §2

[7] = ITC titration with gluconate; conditions: Gluconate (from D-glucono-δ-lactone); 10 mM phosphate buffer pH 7.4, 298 K
Method: (§8) ITC experiments were carried out at 298 K. Saccharide solutions were prepared in HPLC-grade water with 10 mM phosphate buffer solution (pH 7.4) and allowed to equilibrate overnight if necessary. The sample cell was charged with a known concentration of receptor solution in HPLC-grade water with 10 mM phosphate buffer solution at pH 7.4 (typically 50 µM - 200 µM). Then, aliquots (typically 1.0 µL) of carbohydrate solution were added and the evolution of heat was followed as a function of time. Heats of dilution were measured by injecting the same carbohydrate solution into HPLC-grade water with 10 mM phosphate buffer solution at pH 7.4, using identical conditions. For every addition, the heat of dilution was subtracted from the heat of binding using a MicroCal software programme implemented in ORIGIN 7.0. This gave an XY matrix of heat vs. total guest concentration. This matrix was then imported into a specially written Excel programme to fit the data to a 1:1 binding model to give a Ka. ΔG can be derived from Ka and thus ΔS can be derived from ΔH and ΔG using common thermodynamic equations.

[8] = ITC titration with N-acetyl-D-glucosamine; conditions: 10 mM phosphate buffer pH 7.4, 298 K
Method: as §8

[9] = ITC titration with D-xylose; conditions: 10 mM phosphate buffer pH 7.4, 298 K
Method: as §6, §7

[10] = ITC titration with methyl β-D-glucoside
Method: (§9) ITC experiments were carried out at 298 K. Saccharide solutions were prepared in HPLC-grade water with 10 mM phosphate buffer solution (pH 7.4) and allowed to equilibrate overnight if necessary. The sample cell was charged with a known concentration of receptor solution in HPLC-grade water with 10 mM phosphate buffer solution at pH 7.4 (typically 50 µM - 200 µM). Then, aliquots (typically 1.0 µL) of carbohydrate solution were added and the evolution of heat was followed as a function of time. Heats of dilution were measured by injecting the same carbohydrate solution into HPLC-grade water with 10 mM phosphate buffer solution at pH 7.4, using identical conditions. For every addition, the heat of dilution was subtracted from the heat of binding using a MicroCal software programme implemented in ORIGIN 7.0. This gave an XY matrix of heat vs. total guest concentration. This matrix was then imported into a specially written Excel programme to fit the data to a 1:1 binding model to give a Ka. ΔG can be derived from Ka and thus ΔS can be derived from ΔH and ΔG using common thermodynamic equations. […] This method consistently produced more accurate fits than fitting the data to an S-curve, as in the MicroCal software (S-curves are typically not observed for binding constants below ~104 - 105 M^-1).

[11] = ITC titration with paracetamol; conditions: 10 mM phosphate buffer pH 7.4, 298 K
Method: as §1, §2

[12] = ITC titration with D-galactose; conditions: 10 mM phosphate buffer pH 7.4, 298 K
Method: as §6, §7

[13] = ITC titration with L-phenylalanine; conditions: 10 mM phosphate buffer pH 7.4, 298 K
Method: as §1, §2

[14] = ITC titration with D-cellobiose
Method: as §9

[15] = ITC titration with methyl α-D-glucoside; conditions: 10 mM phosphate buffer pH 7.4, 298 K
Method: as §8

[16] = ITC titration with D-ribose; conditions: 10 mM phosphate buffer pH 7.4, 298 K
Method: as §6, §7

[17] = ITC titration with uracil; conditions: Uracil (PBS) pH 7.4, 298 K
Method: as §1, §2

[18] = ITC titration with D-mannose; conditions: 10 mM phosphate buffer pH 7.4, 298 K
Method: as §6, §7

[19] = 1H NMR titration with D-cellobiose; conditions: [Host]total 110 µM
Source text: The integrals of the peak at 8.02 ppm (denoted with •, see FIG. 31) were made relative to integral of the same peak (8.02 ppm) when all receptor is assumed to be saturated with guest (i.e. the final addition in the titration, row denoted with yellow). These relative integrals are then used to determine the amount of Host-Guest [HG]. This value for [HG] along with calculated values for free host [H]free and free guest [G]free can be used to calculate the Ka at each point in the titration. […] Not all Ka values calculated were included in the averaged Ka value. The earlier integrations are unreliable due to the very small intensity of the peak at 8.02 ppm. The later integrations were also deemed unreliable due to large deviations in baseline of the spectra due to the large excess of guest present. The selected values for Ka used for the average calculation and the averaged Ka itself corroborate with the results obtained from ITC.

[20] = 1H NMR ROESY of receptor with D-glucose; conditions: receptor 2 mM with D-glucose 5 mM (2.5 equivalents) in D2O
Source text: Chemical exchange peaks (black, annotated) link CH protons on β-D-glucose in free and bound states. Signals for bound α-D-glucose were not observed under these conditions.

[21] = ITC titration with uric acid; conditions: Uric Acid (PBS) pH 7.4, 298 K
Method: as §1, §2

[22] = 1H NMR titration with 2-deoxy-D-glucose; conditions: D2O, 10 mM phosphate buffer pH 7.4, 298 K
Method: as §3, §4, §5

[23] = ITC titration with L-tryptophan; conditions: 10 mM phosphate buffer pH 7.4, 298 K
Method: as §1, §2

[24] = ITC titration with myo-inositol; conditions: 10 mM phosphate buffer pH 7.4, 298 K
Method: as §8

[25] = ITC titration with ascorbic acid; conditions: 10 mM phosphate buffer pH 7.4, 298 K
Method: as §1, §2

[26] = ITC titration with 2-deoxy-D-glucose
Method: as §9

[27] = ITC titration with D-mannitol; conditions: 10 mM phosphate buffer pH 7.4, 298 K
Method: as §8

[28] = ITC titration with D-glucose
Method: as §9

[29] = 1H NMR titration with D-glucose
Method: as §3
^1H-NMR titrations were performed on a Varian VNMR cryogenically cooled S600 spectrometer. Solutions of saccharides in D2O (99.9%), containing receptor at a known concentration to be used in the experiment, were prepared and allowed to equilibrate overnight before use if necessary. Aliquots were then added to an NMR tube containing a known concentration of receptor solution (typically 50 µM - 250 µM). The receptor concentration was therefore held constant while the carbohydrate concentration was increased. The sample tube was shaken after each addition, centrifuged and ^1H-NMR spectra were acquired at 298 K.
If the receptor bound saccharide slower than the NMR sample rate (“slow exchange”), the Ka was determined by analysing the NMR integral of a peak assigned to the Host-Guest complex. The variable X was defined as the integral of an isolated resonance of the complex (typically in the aromatic region) divided by the integral of all the related resonances (typically the whole aromatic region). As X is proportional to fraction of host in the bound state, the change in X could be plotted as a function of the guest concentration to give a curve which could be fitted to a 1:1 binding model to yield the association constant Ka. Mathematically, the fitting process is essentially identical to that employed for binding with fast exchange, except that the integral of a peak due to the complex replaces the chemical shift of a peak due to bound + unbound receptor. The calculation was performed using a non-linear least squares curve-fitting programme implemented within Excel. The programme yields binding constants Ka and limiting X (Xlim) as output. An estimated error for Ka was obtained from individual data points by assuming the determined Ka and Xlim.

[30] = ITC titration with D-fructose; conditions: 10 mM phosphate buffer pH 7.4, 298 K
Method: as §9

[31] = Methyl β-D-Glucoside, 10 mM phosphate buffer pH 7.4, 298 K
[32] = D-Cellobiose, 10 mM phosphate buffer pH 7.4, 298 K
[33] = 2-Deoxy-D-Glucose, 10 mM phosphate buffer pH 7.4, 298 K
[34] = D-Glucose (DMEM cell culture), 10k MWCO, 10 mM phosphate buffer pH 7.4
[35] = D-Glucose (DMEM salt control), 10 mM phosphate buffer pH 7.4 with added salts
[36] = D-Glucose (Leibovitz’s L-15 cell culture), 10k MWCO, 10 mM phosphate buffer pH 7.4
[37] = D-Glucose (human serum), 10k MWCO, 10 mM phosphate buffer
[38] = D-Glucose, 10 mM phosphate buffer pH 7.4, 298 K

CCc1c2c(CC)c3c(CC)c1CNC(=O)Nc1ccc(C(=O)NC(CCC(=O)NC(CCC(=O)[O-])(CCC(=O)[O-])CCC(=O)[O-])(CCC(=O)NC(CCC(=O)[O-])(CCC(=O)[O-])CCC(=O)[O-])CCC(=O)NC(CCC(=O)[O-])(CCC(=O)[O-])CCC(=O)[O-])cc1NC(=O)NCc1c(CC)c(c(CC)c(c1CC)CNC(=O)Nc1cc(C(=O)NC(CCC(=O)NC(CCC(=O)[O-])(CCC(=O)[O-])CCC(=O)[O-])(CCC(=O)NC(CCC(=O)[O-])(CCC(=O)[O-])CCC(=O)[O-])CCC(=O)NC(CCC(=O)[O-])(CCC(=O)[O-])CCC(=O)[O-])ccc1NC(=O)NC3)CNC(=O)Nc1cc(C(=O)NC(CCC(=O)NC(CCC(=O)[O-])(CCC(=O)[O-])CCC(=O)[O-])(CCC(=O)NC(CCC(=O)[O-])(CCC(=O)[O-])CCC(=O)[O-])CCC(=O)NC(CCC(=O)[O-])(CCC(=O)[O-])CCC(=O)[O-])ccc1NC(=O)NC2.[Na+].[Na+].[Na+].[Na+].[Na+].[Na+].[Na+].[Na+].[Na+].[Na+].[Na+].[Na+].[Na+].[Na+].[Na+].[Na+].[Na+].[Na+].[Na+].[Na+].[Na+].[Na+].[Na+].[Na+].[Na+].[Na+].[Na+] [Receptor 1, Triethylbenzene Receptor]
Ka (Determined by ITC) [1]: 0 M⁻¹ | Ka (Determined by ITC) [2]: 0 M⁻¹ | Ka (Determined by NMR) [3]: 7328 ± 7.4% | Ka (Determined by ITC) [4]: 0 M⁻¹ | TΔS (Determined by ITC) [5]: -1.55 kcal/mol | ΔG (Determined by ITC) [5]: -5.09 kcal/mol | ΔH (Determined by ITC) [5]: -6.64 kcal/mol | Ka (Determined by ITC) [6]: 0 M⁻¹ | Ka (Determined by ITC) [7]: 0 M⁻¹ | Ka (Determined by ITC) [8]: 0 M⁻¹ | TΔS (Determined by ITC) [9]: 3.23 kcal/mol | ΔG (Determined by ITC) [9]: -5.14 kcal/mol | ΔH (Determined by ITC) [9]: -1.91 kcal/mol | TΔS (Determined by ITC) [10, 31]: 5.07 kcal/mol | ΔG (Determined by ITC) [10, 31]: -5.31 kcal/mol | ΔH (Determined by ITC) [10, 31]: -0.765 kcal/mol | Ka by ITC, fit calculated with the supplied ITC software ([10]; methyl-β-D-glucoside in H2O): 9120 ± 542 M⁻¹ | Ka (Determined by ITC) [11]: 0 M⁻¹ | TΔS (Determined by ITC) [12]: 1 kcal/mol | ΔG (Determined by ITC) [12]: -3.08 kcal/mol | ΔH (Determined by ITC) [12]: -2.1 kcal/mol | Ka (Determined by ITC) [13]: 0 M⁻¹ | TΔS (Determined by ITC) [14, 32]: -0.17 kcal/mol | ΔG (Determined by ITC) [14, 32]: -2.03 kcal/mol | ΔH (Determined by ITC) [14, 32]: -2.2 kcal/mol | Ka by ITC, fit calculated with the supplied ITC software ([14]; cellobiose in H2O): 36.6 ± 2.5 M⁻¹ | Ka (Determined by ITC) [15]: 0 M⁻¹ | TΔS (Determined by ITC) [16]: -2.32 kcal/mol | ΔG (Determined by ITC) [16]: -3.18 kcal/mol | ΔH (Determined by ITC) [16]: -5.5 kcal/mol | Ka (Determined by ITC) [17]: 0 M⁻¹ | TΔS (Determined by ITC) [18]: 0.14 kcal/mol | ΔG (Determined by ITC) [18]: -2.94 kcal/mol | ΔH (Determined by ITC) [18]: -2.82 kcal/mol | Ka calculated at titration point (NMR) ([19]; [Guest]total 20 mM): 0.55 M⁻¹ | Ka calculated at titration point (NMR) ([19]; [Guest]total 39 mM): 29.0 M⁻¹ | Ka calculated at titration point (NMR) ([19]; [Guest]total 58 mM): 31.2 M⁻¹ | Ka calculated at titration point (NMR) ([19]; [Guest]total 96 mM): 29.4 M⁻¹ | Ka calculated at titration point (NMR) ([19]; [Guest]total 132 mM): 34.9 M⁻¹ | Ka calculated at titration point (NMR) ([19]; [Guest]total 167 mM): 81.5 M⁻¹ | Ka calculated at titration point (NMR) ([19]; [Guest]total 251 mM): 74.0 M⁻¹ | Ka calculated at titration point (NMR) ([19]; [Guest]total 329 mM): 386 M⁻¹ | Signals for bound α-D-glucose (ROESY) [20]: not observed | Ka (Determined by ITC) [21]: 0 M⁻¹ | Binding implied by 1H NMR spectra (no Ka determinable) [22]: binding with intermediate rate of exchange | Ka (Determined by ITC) [23]: 0 M⁻¹ | TΔS (Determined by ITC) [24]: -0.574 kcal/mol | ΔG (Determined by ITC) [24]: -5.28 kcal/mol | Ka (Determined by ITC) [25]: 0 M⁻¹ | TΔS (Determined by ITC) [26, 33]: 3.2 kcal/mol | ΔG (Determined by ITC) [26, 33]: -3.9 kcal/mol | ΔH (Determined by ITC) [26, 33]: -0.693 kcal/mol | Ka by ITC, fit calculated with the supplied ITC software ([26]; 2-deoxy-D-glucose in H2O): 657 ± 90 M⁻¹ | Ka (Determined by ITC) [27]: 0 M⁻¹ | TΔS (Determined by ITC) [28, 34]: 3.87 kcal/mol | ΔG (Determined by ITC) [28, 34]: -5.11 kcal/mol | ΔH (Determined by ITC) [28, 34]: -1.24 kcal/mol | TΔS (Determined by ITC) [28, 35]: 3.87 kcal/mol | ΔG (Determined by ITC) [28, 35]: -5.07 kcal/mol | ΔH (Determined by ITC) [28, 35]: -1.2 kcal/mol | TΔS (Determined by ITC) [28, 36]: 4.06 kcal/mol | ΔG (Determined by ITC) [28, 36]: -5.07 kcal/mol | ΔH (Determined by ITC) [28, 36]: -1 kcal/mol | TΔS (Determined by ITC) [28, 37]: 3.66 kcal/mol | ΔG (Determined by ITC) [28, 37]: -4.64 kcal/mol | ΔH (Determined by ITC) [28, 37]: -0.98 kcal/mol | Ka (Determined by ITC) ([28]; D-Glucose pH 6 (PBS), 298 K): 17,300 ± 3.8% | TΔS (Determined by ITC) ([28]; D-Glucose pH 6 (PBS), 298 K): 5.16 kcal/mol | ΔG (Determined by ITC) ([28]; D-Glucose pH 6 (PBS), 298 K): -5.78 kcal/mol | ΔH (Determined by ITC) ([28]; D-Glucose pH 6 (PBS), 298 K): -0.621 kcal/mol | Ka (Determined by ITC) ([28]; D-Glucose pH 7 (PBS), 298 K): 17,800 ± 5.5% | TΔS (Determined by ITC) ([28]; D-Glucose pH 7 (PBS), 298 K): 5.26 kcal/mol | ΔG (Determined by ITC) ([28]; D-Glucose pH 7 (PBS), 298 K): -5.81 kcal/mol | ΔH (Determined by ITC) ([28]; D-Glucose pH 7 (PBS), 298 K): -0.526 kcal/mol | Ka (Determined by ITC) ([28]; D-Glucose pH 8 (PBS), 298 K): 18,300 ± 1.8% | TΔS (Determined by ITC) ([28]; D-Glucose pH 8 (PBS), 298 K): 5.21 kcal/mol | ΔG (Determined by ITC) ([28]; D-Glucose pH 8 (PBS), 298 K): -5.81 kcal/mol | ΔH (Determined by ITC) ([28]; D-Glucose pH 8 (PBS), 298 K): -0.621 kcal/mol | Ka (Determined by ITC) [28, 38]: 18,600 ± 14.3% | TΔS (Determined by ITC) [28, 38]: 3.97 kcal/mol | ΔG (Determined by ITC) [28, 38]: -5.83 kcal/mol | ΔH (Determined by ITC) [28, 38]: -1.86 kcal/mol | Ka by ITC, fit calculated with the supplied ITC software ([28]; D-glucose in 10 mM PBS buffer (pH 6)): 19,800 ± 1290 M^-1 | Ka by ITC, fit calculated with the supplied ITC software ([28]; D-glucose in 10 mM PBS buffer (pH 7.4)): 19,100 ± 1310 M^-1 | Ka by ITC, fit calculated with the supplied ITC software ([28]; D-glucose in 10 mM PBS buffer (pH 8)): 23,400 ± 1850 M^-1 | Ka by ITC, fit calculated with the supplied ITC software ([28]; glucose in H2O): 21,000 ± 2640 M^-1 | Saturation of receptor on addition of 2 equivalents (0.2 mM) of D-glucose (1H NMR) ([29]; D2O with no added salts): did saturate the receptor | Saturation of receptor on addition of 2 equivalents (0.2 mM) of D-glucose (1H NMR) ([29]; with MgSO4 (0.8 mM) and CaCl2 (1.8 mM), D2O, 10 mM phosphate buffer pH 7.4, 298 K): did not saturate the receptor | TΔS (Determined by ITC) [30]: -2.27 kcal/mol | ΔG (Determined by ITC) [30]: -2.53 kcal/mol | ΔH (Determined by ITC) [30]: -4.78 kcal/mol
